Results: PubChem BioAssay (NCI)
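Results reflect a 48-hour exposure of cells in 96-well plates to compound at five concentrations. GI50 is the concentration that inhibits growth by half. TGI is the concentration that stops growth completely.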

Legend:
Assay in all cases: NCI-60 cell line screen, 48 h
HL-60(TB) leukemia = tested on: HL-60(TB) leukemia
HOP-62 NSCLC = tested on: HOP-62 NSCLC
KM12 colon = tested on: KM12 colon
NCI-H522 lung = tested on: NCI-H522 lung
SF-268 CNS = tested on: SF-268 CNS
SF-539 CNS = tested on: SF-539 CNS
SK-MEL-2 melanoma = tested on: SK-MEL-2 melanoma
SK-MEL-28 melanoma = tested on: SK-MEL-28 melanoma
SNB-19 CNS = tested on: SNB-19 CNS
SW-620 colon = tested on: SW-620 colon
U251 CNS = tested on: U251 CNS
UACC-257 melanoma = tested on: UACC-257 melanoma
MCF7 breast = tested on: MCF7 breast

Structure (SMILES) | GI50 (HL-60(TB) leukemia) | TGI (HL-60(TB) leukemia) | TGI (HOP-62 NSCLC) | TGI (KM12 colon) | GI50 (NCI-H522 lung) | TGI (NCI-H522 lung) | TGI (SF-268 CNS) | GI50 (SF-539 CNS) | TGI (SF-539 CNS) | TGI (SK-MEL-2 melanoma) | GI50 (SK-MEL-28 melanoma) | TGI (SK-MEL-28 melanoma) | GI50 (SNB-19 CNS) | TGI (SNB-19 CNS) | TGI (SW-620 colon) | GI50 (U251 CNS) | TGI (U251 CNS) | GI50 (UACC-257 melanoma) | TGI (UACC-257 melanoma) | TGI (MCF7 breast)
C/C(=N\NC(=O)c1ccccc1O)c1cccc(/C(C)=N/NC(=O)c2ccccc2O)n1.O=S(=O)([O-])[O-].[Fe+2] | 0.156 µM | 0.341 µM | > 100 µM | > 100 µM | > 100 µM | > 100 µM | > 100 µM | > 100 µM | > 100 µM | > 100 µM | > 100 µM | > 100 µM | > 100 µM | > 100 µM | > 100 µM | 59.1 µM | > 100 µM | > 100 µM | > 100 µM | –
CC(C)C1NC(=O)CC(c2ccccc2)N(N=O)C1c1ccccc1 (centres undefined) | – | > 100 µM | > 100 µM | > 100 µM | – | > 100 µM | > 100 µM | – | > 100 µM | > 100 µM | – | > 100 µM | – | > 100 µM | > 100 µM | – | > 100 µM | – | > 100 µM | > 100 µM
COc1cc(C2(c3ncc[nH]3)SSSCC2O)ccc1O (centres undefined) | – | > 67.9 µM | > 100 µM | > 100 µM | – | 90.6 µM | 23.8 µM | – | > 100 µM | > 100 µM | – | > 100 µM | – | > 100 µM | > 100 µM | – | > 100 µM | – | 28.5 µM | > 100 µM
Cc1c(N=C/C=C/c2ccccc2)c(=O)n(-c2ccccc2)n1C | – | 48.2 µM | 95.8 µM | 77.2 µM | – | > 100 µM | > 100 µM | – | 64.4 µM | > 100 µM | – | 39.8 µM | – | > 100 µM | 58.4 µM | – | 73.3 µM | – | > 100 µM | 60.5 µM
Cc1cccc2sc(-c3ccc(O)cc3)nc12 | – | 40.8 µM | – | 31.6 µM | – | 31.7 µM | 31.9 µM | – | 37.8 µM | 33.7 µM | – | 33.4 µM | – | 31.8 µM | 23.7 µM | – | 39.1 µM | – | 33.1 µM | 26.9 µM
O=C(N/N=C/c1cc(Br)cc(Br)c1[O-])c1ccccc1O.O=C(N/N=C/c1cc(Br)cc(Br)c1[O-])c1ccccc1O.[Zn+2] | – | 0.547 µM | 4.5 µM | 15.9 µM | – | 1.47 µM | 17.5 µM | – | 10.7 µM | 12 µM | – | 11.5 µM | – | 12.2 µM | 19.5 µM | – | 2.01 µM | – | 10.6 µM | –
CCCCCCCCCOCC(COP(=O)([O-])OCC[N+](C)(C)C)OC (centres undefined) | – | > 100 µM | > 100 µM | > 100 µM | – | > 100 µM | > 100 µM | – | > 100 µM | > 100 µM | – | > 100 µM | – | > 100 µM | > 100 µM | – | > 100 µM | – | > 100 µM | > 100 µM
NC1CCC(N(CC(=O)O)CC(=O)O)C(N(CC(=O)O)CC(=O)O)C1 (centres undefined) | – | > 100 µM | > 100 µM | > 100 µM | – | > 100 µM | > 100 µM | – | > 100 µM | > 100 µM | – | > 100 µM | – | > 100 µM | > 100 µM | – | > 100 µM | – | – | > 100 µM
CCOC(=O)/C(=N/Nc1ccccc1)N1C(=S)C=C(C)NN(C)C1=S | – | > 100 µM | – | > 100 µM | – | > 100 µM | > 100 µM | – | > 100 µM | > 100 µM | – | > 100 µM | – | > 100 µM | > 100 µM | – | 50.9 µM | – | > 100 µM | > 100 µM
